Measurements from ChEMBL document CHEMBL1201862, “PubChem BioAssay data set” (2004).
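Assay format: 96-well plates, 48-hour exposure. GI50 = concentration required for 50% inhibition of growth.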 The source made the active and inactive calls. Cut-off read from the data, not from the text of the source: active = GI50 up to about 1.1 µM and inactive = higher.

Columns and labels:
Experiment in all cases: growth of human tumour cells (NCI), 48 h
786-0 = test system: 786-0
A498 = test system: A498
A549 = test system: A549
ACHN = test system: ACHN
BT-549 = test system: BT-549
CAKI-1 = test system: CAKI-1
CCRF-CEM = test system: CCRF-CEM
COLO 205 = test system: COLO 205
DU-145 = test system: DU-145
EKVX = test system: EKVX
HCC 2998 = test system: HCC 2998
HCT-116 = test system: HCT-116
HCT-15 = test system: HCT-15
HL-60 = test system: HL-60
HOP-62 = test system: HOP-62
HOP-92 = test system: HOP-92
HT-29 = test system: HT-29
Hs-578T = test system: Hs-578T
IGROV-1 = test system: IGROV-1
K562 = test system: K562
KM12 = test system: KM12
LOX IMVI = test system: LOX IMVI
M14 = test system: M14
MCF7 = test system: MCF7
MDA-MB-231 = test system: MDA-MB-231
MDA-MB-435 = test system: MDA-MB-435
MDA-N = test system: MDA-N
MOLT-4 = test system: MOLT-4
Malme-3M = test system: Malme-3M
NCI-H226 = test system: NCI-H226
NCI-H23 = test system: NCI-H23
NCI-H460 = test system: NCI-H460
NCI-H522 = test system: NCI-H522
NCI/ADR-RES = test system: NCI/ADR-RES
OVCAR-3 = test system: OVCAR-3
OVCAR-4 = test system: OVCAR-4
OVCAR-5 = test system: OVCAR-5
OVCAR-8 = test system: OVCAR-8
PC-3 = test system: PC-3
RPMI-8226 = test system: RPMI-8226
RXF 393 = test system: RXF 393
SF-268 = test system: SF-268
SF-295 = test system: SF-295
SF-539 = test system: SF-539
SK-MEL-28 = test system: SK-MEL-28
SK-MEL-2 = test system: SK-MEL-2
SK-MEL-5 = test system: SK-MEL-5
SK-OV-3 = test system: SK-OV-3
SN12C = test system: SN12C
SNB-19 = test system: SNB-19
SNB-75 = test system: SNB-75
SW-620 = test system: SW-620
T47D = test system: T47D
TK-10 = test system: TK-10
U-251 = test system: U-251
UACC-257 = test system: UACC-257
UACC-62 = test system: UACC-62
UO-31 = test system: UO-31
SR = test system: SR

Measured: GI50

O=C1C=C(Cl)C(=O)C(c2ccc(Cl)cc2)=C1
inactive: 786-0 22.1 µM | A498 23.8 µM | A549 46.6 µM | ACHN 16.7 µM | BT-549 23.8 µM | CAKI-1 17.6 µM | CCRF-CEM 3.35 µM | COLO 205 16.4 µM | DU-145 22 µM | EKVX 14.8 µM | HCC 2998 18.1 µM | HCT-116 19.3 µM | HL-60 18.8 µM | HOP-62 21.1 µM | HOP-92 19.3 µM | HT-29 23.7 µM | Hs-578T 26.5 µM | IGROV-1 15 µM | K562 4.19 µM | KM12 32.3 µM | LOX IMVI 16.1 µM | M14 17 µM | MCF7 16.3 µM | MDA-MB-231 17.1 µM | MDA-MB-435 17.9 µM | MDA-N 13.3 µM | MOLT-4 4.03 µM | Malme-3M 20.3 µM | NCI-H226 20.2 µM | NCI-H23 23.2 µM | NCI-H460 79.6 µM | NCI-H522 5.05 µM | NCI/ADR-RES 26.4 µM | OVCAR-3 16.6 µM | OVCAR-4 17.7 µM | OVCAR-5 17 µM | OVCAR-8 18.2 µM | PC-3 15.3 µM | RPMI-8226 12.1 µM | RXF 393 18.4 µM | SF-268 19.7 µM | SF-295 45.6 µM | SF-539 16.9 µM | SK-MEL-28 20.2 µM | SK-MEL-2 18.6 µM | SK-MEL-5 16.5 µM | SK-OV-3 47.3 µM | SN12C 22.7 µM | SNB-19 89.3 µM | SNB-75 22.5 µM | SW-620 25.5 µM | T47D 13.7 µM | TK-10 21.2 µM | U-251 15.2 µM | UACC-257 18.6 µM | UACC-62 17.4 µM | UO-31 14.8 µM
18.8 µM: HCT-15

COc1ccc(N2C(=O)c3c4c(c5c([nH]c6ncccc65)c3C2=O)CCC(C(C)(C)C)C4)cc1 (stereo unspecified)
> 100 µM: HCT-15
inactive: 786-0 35.6 µM | A549 > 100 µM | ACHN 40.6 µM | BT-549 84.9 µM | CCRF-CEM > 100 µM | COLO 205 > 100 µM | DU-145 > 100 µM | EKVX > 100 µM | HCC 2998 > 100 µM | HCT-116 > 100 µM | HL-60 > 100 µM | HOP-62 38.6 µM | HT-29 > 100 µM | Hs-578T 28.8 µM | IGROV-1 > 100 µM | K562 > 10 µM | KM12 > 100 µM | M14 > 100 µM | MCF7 > 100 µM | MDA-MB-231 > 100 µM | MDA-MB-435 > 100 µM | MDA-N > 100 µM | MOLT-4 > 10 µM | NCI-H226 > 100 µM | NCI-H23 67 µM | NCI-H460 > 100 µM | NCI-H522 67.3 µM | NCI/ADR-RES > 100 µM | OVCAR-3 > 100 µM | OVCAR-4 > 100 µM | OVCAR-8 > 100 µM | PC-3 > 100 µM | RPMI-8226 > 100 µM | RXF 393 34.6 µM | SF-268 72.6 µM | SF-295 45.6 µM | SF-539 41.9 µM | SK-MEL-28 > 100 µM | SK-MEL-5 > 100 µM | SK-OV-3 40.6 µM | SN12C > 100 µM | SNB-19 65.3 µM | SNB-75 16.8 µM | SR > 100 µM | SW-620 > 100 µM | T47D > 100 µM | TK-10 66.4 µM | U-251 31 µM | UACC-257 > 100 µM | UACC-62 30.3 µM | UO-31 > 100 µM

CC(C)(C)C1=CC(C)(n2[nH]c(=O)n(-c3ccccc3)c2=O)C=C(C(C)(C)C)C1=O
> 100 µM: HCT-15
inactive: 786-0 > 100 µM | A498 > 100 µM | A549 > 100 µM | ACHN > 100 µM | BT-549 > 100 µM | CAKI-1 > 100 µM | COLO 205 > 100 µM | DU-145 > 100 µM | HCC 2998 > 100 µM | HCT-116 > 100 µM | HOP-92 > 100 µM | HT-29 > 100 µM | Hs-578T > 100 µM | K562 47 µM | KM12 > 100 µM | LOX IMVI > 100 µM | MCF7 > 100 µM | MDA-MB-231 > 100 µM | MDA-MB-435 > 100 µM | MDA-N > 100 µM | Malme-3M > 100 µM | NCI-H226 > 100 µM | NCI-H23 > 100 µM | NCI-H460 > 100 µM | NCI-H522 > 100 µM | NCI/ADR-RES > 100 µM | OVCAR-4 > 100 µM | OVCAR-8 > 100 µM | PC-3 > 100 µM | RPMI-8226 25.2 µM | SF-268 > 100 µM | SF-295 > 100 µM | SF-539 > 100 µM | SK-MEL-28 > 100 µM | SK-MEL-2 > 100 µM | SK-MEL-5 > 100 µM | SK-OV-3 > 100 µM | SN12C > 100 µM | SNB-19 > 100 µM | SNB-75 98.4 µM | SW-620 > 100 µM | T47D 59.6 µM | TK-10 > 100 µM | U-251 > 100 µM | UACC-257 > 100 µM | UACC-62 75.3 µM | UO-31 44.9 µM

NC1=CN(CCCO)C2=N/C(=C\c3ccco3)C(=O)N12
inactive: 786-0 > 100 µM | A498 > 100 µM | A549 > 100 µM | ACHN > 100 µM | BT-549 > 100 µM | CAKI-1 > 100 µM | CCRF-CEM > 100 µM | COLO 205 > 100 µM | DU-145 > 100 µM | EKVX > 100 µM | HCC 2998 > 100 µM | HCT-116 > 100 µM | HL-60 > 100 µM | HOP-62 > 100 µM | HOP-92 > 100 µM | HT-29 > 100 µM | Hs-578T > 100 µM | IGROV-1 > 100 µM | K562 > 100 µM | KM12 > 100 µM | LOX IMVI > 100 µM | M14 > 100 µM | MCF7 > 100 µM | MDA-MB-231 > 100 µM | MDA-MB-435 > 100 µM | MDA-N > 100 µM | MOLT-4 > 100 µM | Malme-3M > 100 µM | NCI-H226 > 100 µM | NCI-H23 > 100 µM | NCI-H460 > 100 µM | NCI-H522 > 100 µM | NCI/ADR-RES > 100 µM | OVCAR-3 > 100 µM | OVCAR-4 > 100 µM | OVCAR-5 > 100 µM | OVCAR-8 > 100 µM | PC-3 > 100 µM | RPMI-8226 > 100 µM | RXF 393 > 100 µM | SF-268 > 100 µM | SF-295 > 100 µM | SF-539 > 100 µM | SK-MEL-28 > 100 µM | SK-MEL-2 > 100 µM | SK-MEL-5 > 100 µM | SK-OV-3 > 100 µM | SN12C > 100 µM | SNB-19 > 100 µM | SNB-75 > 100 µM | SW-620 > 100 µM | T47D > 100 µM | TK-10 > 100 µM | U-251 > 100 µM | UACC-257 48.9 µM | UACC-62 > 100 µM | UO-31 94 µM
> 100 µM: HCT-15
